In patent US10029994B2, “Isoxazole hydroxamic acid compounds as LpxC inhibitors” (priority 2014, dated 2018):
Like-named read-outs stand apart in the source and are kept apart here.

Experiments:
A. B. ATCC 19606 [1] = assay: MIC in the presence of sub-inhibitory rifampicin (potentiation/synergy); type: cell-based, Acinetobacter baumannii; conditions: +2 μg/ml rifampicin (RIF); broth microdilution, 35° C., 20 hours
Method: (§1) Bacterial isolates were cultivated from −70° C. frozen stocks by two consecutive overnight passages at 35° C. in ambient air on 5% blood agar (Remel, Lenexa, Kans.). Quality control strain, P. aeruginosa ATCC 27853, A. baumannii ATCC19606 and E. coli ATCC 25922 are from the American Type Culture Collection (ATCC; Rockville, Md.) and PAO1 was received from Dr. K. Poole.
(§2) Minimal Inhibitory Concentrations (MICs) were determined by the broth microdilution method in accordance with Clinical and Laboratories Institute (CLSI) guidelines (CLSI M100-S25, Performance Standards for Antimicrobial Susceptibility Testing; Twenty-fifth Informational Supplement). In brief, fresh bacterial overnight cultures were resuspended in sterile saline, adjusted to a 0.5 McFarland turbidity standard and then diluted 2000-fold in cation adjusted Mueller-Hinton Broth II (MHB; Remel BBL) to yield a final inoculum of approximately 5×10^5 colony-forming units (CFU)/mL. Two-fold serial dilutions of compounds were prepared in 100% dimethyl sulfoxide (DMSO) at 100-fold the highest final assay concentration; the resulting dilution series of compounds were diluted 1:10 with sterile water. Ten μl of the drug dilution series in 10% DMSO was transferred to microtiter wells and 90 μl of bacterial suspension was inoculated into the wells. For testing the ability of compounds to potentiate the activity of known antibiotics, the assay was modified as follows; known antibiotics were added to the bacterial inoculum at 1.1-fold the final assay concentration indicated in Table A. All inoculated microdilution trays were incubated in ambient air at 35° C. for 20 hours. Following incubation, assay plates were read in a microtiter plate reader at 600 nm and visually inspected to confirm the MIC endpoint well with the OD value. The lowest concentration of the compound that prevented visible growth was recorded as the MIC. Performance of the assay was monitored by testing ciprofloxacin against the laboratory quality control strain in accordance with guidelines of the CLSI.

P. aeruginosa LpxC = biological target: T1, P. aeruginosa LpxC (Pseudomonas aeruginosa, UniProt P47205); assay: P. aeruginosa LpxC Inhibition Assay (LC-MS/MS); type: biochemical; conditions: 1 nM P. aeruginosa LpxC, 30 min pre-incubation, 2 μM UDP-3-O-(R-3-hydroxydecanoyl)-GlcNAc, pH 7.5
T1 construct: made in house
T1 sequence (P47205 1-303): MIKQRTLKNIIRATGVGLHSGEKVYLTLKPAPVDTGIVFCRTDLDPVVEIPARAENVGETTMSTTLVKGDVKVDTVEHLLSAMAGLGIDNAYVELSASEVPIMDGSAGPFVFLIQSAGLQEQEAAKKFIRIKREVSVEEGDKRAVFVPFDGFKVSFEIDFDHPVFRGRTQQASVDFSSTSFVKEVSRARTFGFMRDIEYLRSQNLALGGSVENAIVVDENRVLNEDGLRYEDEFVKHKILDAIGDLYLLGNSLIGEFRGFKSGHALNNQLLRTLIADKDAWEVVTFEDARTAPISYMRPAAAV
Excerpt: P. aeruginosa LpxC Inhibition Assay
The P. aeruginosa LpxC protein is produced according to the general method of Hyland et al (Journal of Bacteriology 1997 179, 2029-2037: Cloning, expression and purification of UDP-3-O-acyl-GlcNAc deacetylase from Pseudomonas aeruginosa: a metalloamidase of the lipid A biosynthesis pathway). The LC-MS/MS method for quantitation of LpxC product was developed using an Agilent 1200 Capillary HPLC system coupled to an Applied Biosystems MDS Sciex 4000QTRAP mass spectrometer. Both instruments are controlled using the Applied Biosystems MDS Sciex Analyst software. LpxC reaction product (UDP-3-O—(R-3-hydroxyacyl)-glucosamine) was produced by hydrolysis of LpxC substrate catalyzed by P.a. LpxC and purified using reversed phase chromatography on a Phenomenex Luna C18(2) 4.6×50 mm column. An LpxC product calibration curve was generated to evaluate the sensitivity and dynamic range of the LC-MS/MS method. Briefly, compounds are pre-incubated with 1 nM P. aeruginosa LpxC for 30 min. at room temperature. Reactions are initiated by the addition of 2 μM UDP-3-O—(R-3-hydroxydecanoyl)-GlcNAc. Reactions are conducted in a 384-well plate with a total volume of 50 μL in each well containing 50 mM Sodium phosphate pH 7.5, 0.005% Trition X-100 for 20 min at room temperature. After quenching with 1.8% HOAc (5 μL of a 20% HOAc added to each well), reaction mixtures are analyzed using the LC-MS/MS method and peak areas are transformed into product concentration using a LpxC product calibration curve. Total activity (0% inhibition control) is obtained from reactions with no inhibitors and 100% inhibition control is the background using quenched samples before reaction starts. For IC50 determinations, peak areas are converted to percent inhibition in Microsoft Excel. Percent inhibition values are plotted vs. log compound concentration using XLfit. Data is fit to the four-parameter logistic equation using the non-linear regression algorithm in XLfit to return the IC50 and hill slope values.

E. C. ATCC 25922 = assay: MIC, broth microdilution (CLSI); type: cell-based, Escherichia coli; conditions: Escherichia coli, ATCC25922, 20 h, read-out: E. C. ATCC 25922 MIC
Method: as §1, §2

P. A. PAO1 NB52019 = assay: MIC, broth microdilution (CLSI); type: cell-based, Pseudomonas aeruginosa; conditions: Pseudomonas aeruginosa, read-out: P. A. PAO1 NB52019 MIC
Method: as §1, §2

A. B. ATCC 19606 [2] = assay: MIC, broth microdilution (CLSI); type: cell-based, Acinetobacter baumannii; conditions: Acinetobacter baumannii, read-out: A. B. ATCC 19606 MIC
Method: as §1, §2

E. C. ATCC 29522 = assay: MIC in the presence of sub-inhibitory rifampicin (potentiation/synergy); type: cell-based, Escherichia coli; conditions: +2 μg/ml rifampicin (RIF); broth microdilution, 35° C., 20 hours
Method: as §1, §2

[3] = broth microdilution, 35° C., 20 hours
[4] = PAO1, broth microdilution, 35° C., 20 hours
[5] = ATCC19606, broth microdilution, 35° C., 20 hours

SMILES | A. B. ATCC 19606 (+2 μg/ml RIF) MIC (A. B. ATCC 19606 [1]) | IC50 (P. aeruginosa LpxC) | MIC (E. C. ATCC 25922; [3]) | MIC (P. A. PAO1 NB52019; [4]) | MIC (A. B. ATCC 19606 [2]; [5]) | E. C. ATCC 29522 (+2 μg/ml RIF) MIC (E. C. ATCC 29522) | MIC (E. C. ATCC 25922) | MIC (P. A. PAO1 NB52019; PAO1, 20 h) | MIC (A. B. ATCC 19606 [2]; ATCC19606, 20 h)
Cc1cc([C@H](O)[C@](C)(NCc2cc(C#CC3CC3)on2)C(=O)NO)no1 [Compound 3.1, (2S,3R)-2-(((5-(cyclopropylethynyl)isoxazol-3-yl)methyl)amino)-N,3-dihydroxy-2-methyl-3-(5-methylisoxazol-3-yl)propanamide] | ≤0.06 µg/mL | < 1 nM |  |  |  | ≤0.06 µg/mL | 1 µg/mL | 0.5 µg/mL | > 64 µg/mL
Cc1cc([C@H](O)[C@](C)(NCc2cc(C#CC3CCC3)on2)C(=O)NO)no1 [Compound 3.2, (2S,3R)-2-(((5-(cyclobutylethynyl)isoxazol-3-yl)methyl)amino)-N,3-dihydroxy-2-methyl-3-(5-methylisoxazol-3-yl)propanamide] | ≤0.06 µg/mL | < 1 nM | 1 µg/mL | 1 µg/mL | > 64 µg/mL | 0.5 µg/mL |  |  | 
Cc1cc([C@H](O)[C@](C)(NCc2cc(C#Cc3ccccc3)on2)C(=O)NO)no1 [Compound 3.3, (2S,3R)—N,3-dihydroxy-2-methyl-3-(5-methylisoxazol-3-yl)-2-(((5-(phenylethynyl)isoxazol-3-yl)methyl)amino)propanamide] | ≤0.06 µg/mL | < 1 nM | ≤ 0.06 µg/mL | 0.25 µg/mL | 64 µg/mL | 0.06 µg/mL |  |  | 
CC(NCc1cc(C#Cc2ccccc2)on1)(C(=O)NO)C(O)c1cc(CO)on1 (stereo not drawn) [Compound 3.4, N,3-dihydroxy-3-(5-(hydroxymethyl)isoxazol-3-yl)-2-methyl-2-(((5-(phenylethynyl)isoxazol-3-yl)methyl)amino)propanamide] | 0.125 µg/mL | < 1 nM | 1 µg/mL | 0.5 µg/mL | > 64 µg/mL | ≤0.06 µg/mL |  |  | 
COCCCCC#Cc1cc(CN[C@](C)(C(=O)NO)[C@@H](O)c2cc(C)on2)no1 [Compound 3.5, (2S,3R)—N,3-dihydroxy-2-(((5-(6-methoxyhex-1-yn-1-yl)isoxazol-3-yl)methyl)amino)-2-methyl-3-(5-methylisoxazol-3-yl)propanamide] | 1 µg/mL | 3 nM | 16 µg/mL | 16 µg/mL | 32 µg/mL | 2 µg/mL |  |  | 
CC(NCc1cc(C#CC2CC2)on1)(C(=O)NO)C(O)c1cc(C2CC2)on1 (stereo not drawn) [Compound 3.6, 2-(((5-(cyclopropylethynyl)isoxazol-3-yl)methyl)amino)-3-(5-cyclopropylisoxazol-3-yl)-N, 3-dihydroxy-2-methylpropanamide] | 0.125 µg/mL | 2 nM | 2 µg/mL | 4 µg/mL | 64 µg/mL | 0.5 µg/mL |  |  | 
CC/C=C/c1cc(CC[C@](C)(C(=O)NO)S(C)(=O)=O)no1 [Compound 4.1, (R,E)-4-(5-(but-1-en-1-yl)isoxazol-3-yl)-N-hydroxy-2-methyl-2-(methylsulfonyl)butanamide] | 1 µg/mL | < 1 nM | 8 µg/mL | 0.5 µg/mL | > 64 µg/mL | 0.125 µg/mL |  |  | 

Second part, led by results:

A. B. ATCC 19606 (+2 μg/ml RIF) MIC (A. B. ATCC 19606 [1]) | IC50 (P. aeruginosa LpxC) | MIC (E. C. ATCC 25922; [3]) | MIC (P. A. PAO1 NB52019; [4]) | MIC (A. B. ATCC 19606 [2]; [5]) | E. C. ATCC 29522 (+2 μg/ml RIF) MIC (E. C. ATCC 29522) | SMILES | MIC (E. C. ATCC 25922) | MIC (P. A. PAO1 NB52019; PAO1, 20 h) | MIC (A. B. ATCC 19606 [2]; ATCC19606, 20 h)
0.5 µg/mL | < 1 nM | 0.25 µg/mL | 1 µg/mL | > 64 µg/mL | 0.125 µg/mL | C[C@@H](O)Cc1ccc(C#Cc2cc(CCC(C)(C(=O)NO)S(C)(=O)=O)no2)cc1 (stereo partly drawn) [Compound 2.5, N-hydroxy-4-(5-((4-((R)-2-hydroxypropyl)phenyl)ethynyl)isoxazol-3-yl)-2-methyl-2-(methylsulfonyl)butanamide] |  |  | 
1 µg/mL | < 1 nM | 0.5 µg/mL | 0.25 µg/mL | > 64 µg/mL | 0.125 µg/mL | CO[C@H](CO)c1ccc(C#Cc2cc(CC[C@](C)(C(=O)NO)S(C)(=O)=O)no2)cc1 [Compound 2.6, (R)—N-hydroxy-4-(5-((4-((S)-2-hydroxy-1-methoxyethyl)phenyl)ethynyl)-isoxazol-3-yl)-2-methyl-2-(methylsulfonyl)butanamide] |  |  | 
6 µg/mL | < 1 nM | 1 µg/mL | 0.25 µg/mL | > 64 µg/mL | 0.125 µg/mL | C[C@@](CCc1cc(C#Cc2ccc([C@H](O)CO)cc2)on1)(C(=O)NO)S(C)(=O)=O [Compound 2.7, (R)-4-(5-((4-((S)-1,2-dihydroxyethyl)phenyl)ethynyl)isoxazol-3-yl)-N-hydroxy-2-methyl-2-(methylsulfonyl)butanamide] |  |  | 
1 µg/mL | < 1 nM | 1 µg/mL | 0.25 µg/mL | > 64 µg/mL | 0.125 µg/mL | C[C@@](CCc1cc(C#Cc2ccc([C@@H](O)CO)cc2)on1)(C(=O)NO)S(C)(=O)=O [Compound 2.8, (R)-4-(5-((4-((R)-1,2-dihydroxyethyl)phenyl)ethynyl)isoxazol-3-yl)-N-hydroxy-2-methyl-2-(methylsulfonyl)butanamide] |  |  | 
